Measured values taken from article PMC9295122, “Sialic Acid Derivatives Inhibit SiaT Transporters and Delay Bacterial Growth” (ACS Chemical Biology, 2022).

Legend:
[1] = Plasma-protein binding by RED, rat; format: in vitro ADME; conditions: pH 7.2, read-out: Plasma-protein binding by RED (% unbound compound, average n=2)
Method: The assay was run in a deep well plate containing RED inserts with semipermeable dialysis membranes. The reaction was started by adding the compounds to a blank plasma in a 5 μM concentration. Opposite to the blank plasma was a compartment containing isotonic sodium–phosphate buffer (pH 7.2) separated from the plasma by the membrane. The plate was equilibrated in a water bath at 37 °C for 4 h. Samples from both the plasma and the buffer side were matrix compensated before protein precipitation. The samples were centrifuged, and the supernatants were diluted and analyzed by LC–MS/MS to determine the % unbound compound. Two incubations per compound per species.

Plasma stability, human = format: in vitro ADME; conditions: 1 μM, 37 °C
Method: The reaction was started by the addition of the compound to blank plasma in LC vials after preincubation at 37 °C. The initial compound concentration was 1 μM. The reaction was stopped by the addition of ACN at seven time points (0, 0.5, 1, 2, 4, 6, and 23 h). Time point 0 h was about 15–20 s after spiking the plasma with the compound. The samples were centrifuged and the supernatant diluted and analyzed by LC–MS/MS to determine the % of compound remaining relative to the initial concentration of compound.

PmSiaT = target: T1, PmSiaT (Proteus mirabilis, UniProt B4EZY7); experiment: [3H]Neu5Ac efflux in proteoliposomes, PmSiaT; format: biochemical; conditions: 0.1 mM external compound
T1 construct: made in house
T1 sequence (B4EZY7 1-496): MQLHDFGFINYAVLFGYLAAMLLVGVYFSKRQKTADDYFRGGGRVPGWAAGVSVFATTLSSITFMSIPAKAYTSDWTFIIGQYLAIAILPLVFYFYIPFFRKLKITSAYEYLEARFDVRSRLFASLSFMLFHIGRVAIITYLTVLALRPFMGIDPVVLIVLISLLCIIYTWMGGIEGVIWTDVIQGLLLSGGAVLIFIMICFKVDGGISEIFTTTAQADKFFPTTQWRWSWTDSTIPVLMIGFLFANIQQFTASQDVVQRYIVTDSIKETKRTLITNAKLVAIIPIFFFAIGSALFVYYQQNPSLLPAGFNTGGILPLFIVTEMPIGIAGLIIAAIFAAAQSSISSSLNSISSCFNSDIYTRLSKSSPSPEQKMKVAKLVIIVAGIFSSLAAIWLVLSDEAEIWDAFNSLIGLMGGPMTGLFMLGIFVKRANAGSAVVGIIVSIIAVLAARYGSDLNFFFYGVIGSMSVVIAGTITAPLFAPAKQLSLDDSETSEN
Method: Figure 5 Kinetic analysis of the inhibition of recombinant SiaT from P. mirabilis (A,B) and S. aureus (C,D) reconstituted in proteoliposomes and [^3H]Neu5Ac efflux in proteoliposomes (E,F). (a–d) Data were plotted according to Lineweaver–Burk as a reciprocal transport rate vs reciprocal Neu5Ac concentration. The transport rate was measured, in 5 min, by adding [^3H] Neu5Ac at the indicated concentrations to proteoliposomes containing 20 mM K^+-gluconate in the presence of valinomycin as described in the Supporting Information. [(A,B) P. mirabilis SiaT]; (A) compound 3f 0.25 μM (●) or 0.75 μM (□) was added in comparison to samples without inhibitor (○). (B) Compound 3e 12 μM (●) or 40 μM (□) was added in comparison to samples without an inhibitor (○). [(C,D) S. aureus SiaT]. (C) Compound 3f 80 μM (●) or 200 μM (□) was added in comparison to samples without an inhibitor (○). (D) Compound 3e 5 μM (●) or 12 μM (□) was added in comparison to samples without an inhibitor (○). Results are mean ± s.d. from four independent experiments (n = 4). […] Data are calculated as the percent of residual activity with respect to the control sample (efflux time zero). The results are the means ± s.d. of three independent experiments. […]
For uptake experiments, 600 μL of proteoliposomes were loaded onto a Sephadex G-75 column (0.7 cm diameter × 15 cm height), pre-equilibrated with 20 mM Hepes Tris pH 7.0 with 40 mM sucrose to balance the internal osmolarity. […] For kinetic measurement, the initial transport rate was measured by stopping the reaction after 5 min, that is, within the initial linear range of [^3H]-Neu5Ac uptake into the proteoliposomes previously described. […] In both uptake and efflux experiments, the transport assay was terminated by loading each proteoliposome sample (100 μL) on a Sephadex G-75 column (0.6 cm diameter × 8 cm height) to remove the external radioactivity. Proteoliposomes were eluted with 1 mL of 50 mM NaCl and collected in a 4 mL of scintillation mixture, vortexed and counted. […]

SMILES	fraction unbound at 4 h, 5 μM [1]	In vitro plasma stability (% compound remaining after 23 h) (Plasma stability, human)	[3H]Neu5Ac efflux induced (PmSiaT)
CC(=O)NC1C(OCc2ccccc2)CC(O)(C(=O)O)OC1C(O)C(O)CO (stereo not drawn) [Compound 3a]	0.72	100%	
CC(=O)NC1C(OCc2cc(F)cc(F)c2)CC(O)(C(=O)O)OC1C(O)C(O)CO (stereo not drawn) [Compound 3e]	0.67	100%	did not cause any [^3H]Neu5Ac efflux
CC(=O)NC1C(OCc2cc(Br)cc(Br)c2)CC(O)(C(=O)O)OC1C(O)C(O)CO (stereo not drawn) [Compound 3f]	0.21	91%	did not cause any [^3H]Neu5Ac efflux
CC(=O)N[C@H]1[C@H]([C@H](O)[C@H](O)CO)OC(O)(C(=O)O)C[C@@H]1O (stereo partly drawn) [Neu5Ac, 5-N-acetyl neuraminic acid, reference compound]			slow but measurable counter flow
